# Experimental data: PubChem BioAssay AID1645862 (Buhrlage Lab, Dana-Farber Cancer Institute and Novartis …, 2021)
# pIC50: −log10 of the molar value. The source made the active and inactive calls. The rule behind the calls is not given here. Bridge positions count the residues as written; N and C are the ends. Square brackets hold non-standard residues; d marks the D form. Peptide text beside a SMILES is read from it. * marks the point of attachment. ξ: configuration not given here. d(aIle) = CC[C@H](C)[C@@H](N)C(=O)O; d(aThr) = C[C@@H](O)[C@@H](N)C(=O)O; X1 = CCCCCCCCCCCC(O)CC(=O)*; ξL = CC(C)CC(N)C(=O)O
# Molecular target: Ubiquitin carboxyl-terminal hydrolase 8 (Homo sapiens) (UniProt P40818)
# Sequence (P40818 whole entry, looked up): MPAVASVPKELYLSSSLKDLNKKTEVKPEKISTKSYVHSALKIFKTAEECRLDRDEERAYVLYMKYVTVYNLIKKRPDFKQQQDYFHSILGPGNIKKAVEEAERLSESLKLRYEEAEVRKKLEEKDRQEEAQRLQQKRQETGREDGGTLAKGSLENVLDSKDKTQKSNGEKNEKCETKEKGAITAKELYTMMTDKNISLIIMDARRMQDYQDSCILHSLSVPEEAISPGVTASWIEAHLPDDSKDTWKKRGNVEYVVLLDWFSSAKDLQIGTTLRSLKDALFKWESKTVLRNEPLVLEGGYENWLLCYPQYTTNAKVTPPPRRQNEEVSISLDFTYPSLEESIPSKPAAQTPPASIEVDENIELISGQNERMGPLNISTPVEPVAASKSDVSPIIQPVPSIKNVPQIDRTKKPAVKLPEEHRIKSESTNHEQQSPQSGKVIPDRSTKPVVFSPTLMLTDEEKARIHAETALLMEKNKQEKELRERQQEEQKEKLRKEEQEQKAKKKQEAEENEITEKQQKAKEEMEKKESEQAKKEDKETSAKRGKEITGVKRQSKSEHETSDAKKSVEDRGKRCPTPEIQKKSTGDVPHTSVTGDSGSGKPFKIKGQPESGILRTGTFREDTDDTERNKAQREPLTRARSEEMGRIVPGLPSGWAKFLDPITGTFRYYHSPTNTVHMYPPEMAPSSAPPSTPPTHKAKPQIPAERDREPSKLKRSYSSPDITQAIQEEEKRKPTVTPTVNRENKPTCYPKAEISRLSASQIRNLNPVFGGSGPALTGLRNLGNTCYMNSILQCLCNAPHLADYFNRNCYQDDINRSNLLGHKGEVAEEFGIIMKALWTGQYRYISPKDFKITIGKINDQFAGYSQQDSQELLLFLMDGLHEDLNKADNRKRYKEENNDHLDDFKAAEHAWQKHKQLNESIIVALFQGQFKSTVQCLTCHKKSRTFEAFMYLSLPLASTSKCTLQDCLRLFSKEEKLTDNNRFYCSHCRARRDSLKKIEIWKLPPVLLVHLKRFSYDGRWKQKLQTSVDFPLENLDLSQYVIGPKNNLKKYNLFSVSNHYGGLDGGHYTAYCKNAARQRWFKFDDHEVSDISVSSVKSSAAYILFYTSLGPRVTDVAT
# Test: Ubiquitin-specific protease 8 inhibitors, concentration-effect, biochemical, validation of initial actives (AID 1645862);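 note: potency reflects inhibition of USP8 cleavage of a ubiquitin rhodamine substrate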
# Details: recombinant USP8 deubiquitinase activity assay
IC50,pIC50,SMILES
> 40 µM (inactive),–,O=C(CSc1nc2cc(C(F)(F)F)ccc2s1)NCC(=O)c1ccccc1
–,4.50,COc1ccc(-c2c(NC(=O)C3COc4ccccc4O3)n[nH]c2C)cc1OC (stereo not given)
> 40 µM (inactive),–,O=C(CCn1c(=O)c2ccccc2n(CC(=O)OCc2ccccc2)c1=O)NCc1ccc2c(c1)OCO2
–,4.49,O=C(CSc1nc2c(cnn2-c2ccccc2)c(=O)[nH]1)Nc1ccc(Cl)cc1F
> 40 µM (inactive),–,COc1ccc(/C=C/C(=O)Nc2ccc3nc(N4CCN(c5ncccn5)CC4)cc(C)c3c2)cc1
> 40 µM (inactive),–,COc1ccc(NC(=O)Cn2c(C)cc(=O)n3nc(-c4cccc(C)c4)nc23)cc1
> 40 µM (inactive),–,COc1ccc(NS(=O)(=O)c2cc(NC(=O)CC(=O)c3ccc([N+](=O)[O-])cc3)ccc2C)cc1
> 40 µM (inactive),–,CC(C)CCCCCCCCCCC(=O)N(C)[C@H](CO)C(=O)N[C@H](C)C(=O)NCC(=O)N(C)C1C(=O)N[C@@H](C)C(=O)NC(C(=O)O)Cc2ccc(O)c(c2)-c2cc1ccc2O (stereo not given in full)
> 40 µM (inactive),–,COc1ccccc1C(=O)Nc1ccc(Oc2ncnc3sc(-c4ccccc4)cc23)cc1
–,4.40,Cc1ccc(NC(=O)Cn2cc(C(=O)c3ccccc3)c(=O)c3cc(C)ccc32)cc1
> 40 µM (inactive),–,O=C(COc1ccc(N2CC(C(=O)NCc3ccc4c(c3)OCO4)CC2=O)cc1)Nc1ccc(F)cc1 (stereo not given)
> 40 µM (inactive),–,Cc1ccc(C(=O)O)cc1NC(=O)C(Sc1cccc(NC(=O)c2ccccc2C)c1)c1ccccc1 (stereo not given)
> 40 µM (inactive),–,Cc1cc(-c2nnc(SCC(=O)Nc3ccc(Br)c(C)c3)n2N)n[nH]1
> 40 µM (inactive),–,COc1cccc(C(=O)Nc2nc(-c3nnn(-c4ccc(C)c(F)c4)c3C)ns2)c1
–,5.03,CCOc1ccc2cc3c(nc2c1)OC(=O)N(Cc1ccc(OC)cc1)C3
> 40 µM (inactive),–,Cc1ccc(CNC(=O)Cn2c(=O)n(CCCC(=O)NCc3ccc(F)cc3)c(=O)c3ccccc32)cc1
> 40 µM (inactive),–,NC(=O)c1nc(-c2cccnc2)nc2c1[nH]c(=O)n2-c1ccc2c(c1)OCO2
> 40 µM (inactive),–,CSc1nc(N)c2c(n1)N[C@H]1OC[C@H](O)[C@H](O)[C@H]1N2
> 40 µM (inactive),–,COc1cc(NC(=O)Cn2c(=O)n(-c3ccc(CC(=O)NC4CCCC4)cc3)c(=O)c3ccccc32)cc(OC)c1
> 40 µM (inactive),–,CCCCCCCCCC(CCCCCCCCCC(=O)O)O[C@H]1O[C@@H](COC(C)=O)[C@H](O)[C@@H](O)[C@H]1OC(=O)CC(=O)O (stereo not given in full)
> 40 µM (inactive),–,Cc1ccc(NC(=O)Nc2nnc(CC(=O)NCc3ccccc3)s2)cc1F
> 40 µM (inactive),–,Cc1ccc(NC(=O)Nc2nnc(CC(=O)NCc3ccccc3)s2)c(Cl)c1

IC50,pIC50,SMILES
> 40 µM (inactive),–,CN1CCC(N2CCN(C(=O)C3CCCN(c4cnc5nccnc5c4)C3)CC2)CC1 (stereo not given)
> 40 µM (inactive),–,NC(=O)C1(N2CCCCC2)CCN(c2ncc3c(=O)n(-c4ccccc4)c(=O)[nH]c3n2)CC1
> 40 µM (inactive),–,COc1ccc(NC(=O)COc2cc(C)nc(-c3ccc(C)cc3)n2)c(OC)c1
> 40 µM (inactive),–,Cc1cc(Nc2cccc(Cl)c2)n2nc(-c3cccnc3)nc2n1
–,6.08,C[C@@H]1OC2=C(C(=O)c3cccc(O)c3C2=O)[C@H](O)[C@@H]1O
> 40 µM (inactive),–,CCN(Cc1ccccc1)C(=O)Cn1ccc2ccn(C)c2c1=O
> 40 µM (inactive),–,Cc1cc(N2CCN(c3ncccn3)CC2)nc2ccc(NC(=O)c3ccncc3)cc12
> 40 µM (inactive),–,COc1ccccc1C(=O)N1CCC[C@H](Cn2nnc(-c3cccnc3)n2)C1
> 40 µM (inactive),–,COc1ccc(Cl)cc1NC(=O)Cn1c(=O)n(CCCC(=O)NCc2ccc(C)cc2)c(=O)c2sccc21
> 40 µM (inactive),–,COc1ccc(C2/C(=C(\O)c3ccccc3)C(=O)C(=O)N2c2cccc(C(F)(F)F)c2)cc1 (stereo not given)
> 40 µM (inactive),–,CCc1ccc(NC(=O)CSc2nc3nccnc3c(=O)n2Cc2ccc(F)cc2)cc1
> 40 µM (inactive),–,CCc1ccc([C@@H]2c3c(C)nn(C)c3NC(=O)[C@H]2NC(=O)c2ccc(OC)c(OC)c2)cc1
> 40 µM (inactive),–,Cc1cc(NS(=O)(=O)c2ccc(NC(=O)c3ccc(N4CCCC4)c([N+](=O)[O-])c3)cc2)no1
> 40 µM (inactive),–,Cc1ccc(NC(=O)Cn2cnc3c(c(C)c(C)n3-c3ccccc3)c2=O)c(C)c1
> 40 µM (inactive),–,CCOc1ccc2c(c1)c(=O)c(C(=O)c1ccccc1)cn2CC(=O)Nc1ccc(OC)cc1
> 40 µM (inactive),–,O=C(c1ccncc1)N1CCN(CC2CC=CCC2)CC1 (stereo not given)
–,5.77,CC1=C(Cn2c3cccc(=O)c-3nc3ccccc32)CCC(C)(C)C1
> 40 µM (inactive),–,CCCc1nnc(C(=O)Nc2ccc(C(=O)NC(C)c3ccccc3)cc2)s1 (stereo not given)
> 40 µM (inactive),–,Cc1cc(C)c(NC(=O)CSc2nc3nccnc3c(=O)n2Cc2ccccc2Cl)c(C)c1
> 40 µM (inactive),–,O=C(NCc1ccc(Cl)cc1)c1cc2c(s1)-c1ccccc1OC2
> 40 µM (inactive),–,COc1ccc(N(CC(=O)NC2CCCCC2)C(=O)c2ccc(-c3ccccc3)[nH]2)cc1OC
> 40 µM (inactive),–,CC(=O)N1CCc2cc(S(=O)(=O)NC(Cc3ccccc3)C(=O)Nc3cccc(Cl)c3C)ccc21 (stereo not given)

IC50,pIC50,SMILES
> 40 µM (inactive),–,CCCN1CCN(C(=O)Cn2c(C)ccc(NC(=O)c3ccccc3)c2=O)CC1
> 40 µM (inactive),–,COc1ccccc1-c1noc(CCCC(=O)Nc2ccccc2)n1
> 40 µM (inactive),–,O=C(NCCc1nc2ccccc2n1CCCOc1ccccc1Cl)C1CCCCC1
> 40 µM (inactive),–,CCn1cc2c(n1)c(=O)n(Cc1ccccc1)c(=O)n2CC(=O)NCc1ccc(C)cc1
> 40 µM (inactive),–,Cc1ccc(CS(=O)(=O)c2cn(CC(=O)NCCc3ccccc3)c3ccccc23)cc1
> 40 µM (inactive),–,COc1ccc2nc(-c3ccc(NC(=O)c4cccc(OC)c4OC)cc3)cn2n1
> 40 µM (inactive),–,COc1cc(C2CC(=O)c3c([nH]c(C(=O)OCCOc4ccccc4)c3C)C2)cc(OC)c1OC (stereo not given)
> 40 µM (inactive),–,O=C(CC1C(=O)N(C2CCCC2)c2nc3ccccc3n21)Nc1ccccc1 (stereo not given)
–,5.68,C=C1C=C(CCC(=O)O)C(=O)OC1/C=C/C=C/C (stereo not given)
> 40 µM (inactive),–,Cc1[nH]n2c(=O)c(Cl)c(-c3ccccc3)nc2c1-c1ccccc1
–,4.75,CC/C=C\C/C=C\C/C=C\CCCCCCCC(=O)O
–,4.43,CCCn1cc(C(=O)N2CCC3(CC2)CC2(CO3)Nc3ccccc3-n3cccc32)c(C)n1 (stereo not given)
–,5.03,Cn1cc(NC(=O)Nc2cccc(C(F)(F)F)c2)c2ccccc2c1=O
> 40 µM (inactive),–,COc1ccc(CNC(=O)C2CCCN(S(=O)(=O)Cc3ccc(Cl)cc3)C2)cc1 (stereo not given)
> 40 µM (inactive),–,CCc1nnc(-c2ccc3ccn(CC(=O)N4CCN(c5ccccn5)CC4)c3c2)o1
–,4.49,CCOc1ccc2c(c1)c(=O)c(C(=O)c1ccccc1)cn2CC(=O)Nc1ccc(Cl)cc1
> 40 µM (inactive),–,O=C(Cn1cc(C(=O)c2ccccc2)c(=O)c2cc(F)ccc21)Nc1ccc2c(c1)OCCO2
> 40 µM (inactive),–,COc1ccc(NC(=O)c2cc(-c3cccnc3)n[nH]2)cc1Cl
> 40 µM (inactive),–,CCc1ccccc1NC(=O)Cn1c(=O)n(CC(=O)NCc2ccccc2Cl)c(=O)c2sccc21
> 40 µM (inactive),–,COc1ccc(Cl)cc1NC(=O)c1nc(-c2cn(-c3ccccc3)nn2)no1
> 40 µM (inactive),–,Cc1cc(OCC(=O)Nc2ccccc2C(=O)Nc2ccccc2)ccc1Cl
> 40 µM (inactive),–,O=C(Cn1c(=O)n(Cc2ccccc2)c(=O)c2ncccc21)NCc1ccccc1Cl

IC50,pIC50,SMILES
> 40 µM (inactive),–,N=C1/C(=C/c2cn(Cc3ccc(F)cc3)c3ccccc23)C(=O)N=C2SC(Cc3ccccc3)=NN12
> 40 µM (inactive),–,Cc1c(C(=O)Nc2ccc(Oc3ccccc3)cc2)nnn1-c1cccc(Cl)c1
> 40 µM (inactive),–,CCc1cccc(C)c1NC(=O)Cn1nc2ccc(C(=O)NCc3ccccc3)cn2c1=O
> 40 µM (inactive),–,CCCCCCCCCCCC(O)CC(=O)N[C@@H](CC(C)C)C(=O)N[C@H](CCC(=O)O)C(=O)N[C@H]1C(=O)N[C@H]([C@@H](C)CC)C(=O)NC(CC(C)C)C(=O)N[C@H](CO)C(=O)N[C@@H](CC(C)C)C(=O)N[C@@H](CC(C)C)C(=O)N[C@H](CO)C(=O)N[C@@H](C(C)C)C(=O)O[C@@H]1C (stereo not given in full) (X1-L[dE][d(aThr)][d(aIle)][ξL][dS]LL[dS]V; ester 3-C)
> 40 µM (inactive),–,CC(=O)c1ccc(NC(=O)C2CC(=O)Nc3nc(SCc4ccccc4)nn32)cc1 (stereo not given)
> 40 µM (inactive),–,Cc1ccc(-n2nc(C)c3c2NC(=O)CC3C(=O)c2cc3ccccc3o2)cc1C (stereo not given)
> 40 µM (inactive),–,CN(C)S(=O)(=O)c1ccc(NC(=O)CN2CCCc3ccccc32)cc1
–,4.59,Cc1ccc(NC(=O)Nc2ccc(C)n(CC(=O)Nc3ccc(C)cc3C)c2=O)cc1
> 40 µM (inactive),–,Nc1ncc(-c2ccc(F)cc2)c(C2CCCN(C(=O)c3ccn[nH]3)C2)n1 (stereo not given)
> 40 µM (inactive),–,COc1ccc(C2(c3nnc(C(C)Oc4ccc(F)cc4)o3)CCOCC2)cc1 (stereo not given)
> 40 µM (inactive),–,O=c1[nH]cccc1NS(=O)(=O)c1ccc(F)cc1
> 40 µM (inactive),–,NS(=O)(=O)c1cccc(NS(=O)(=O)c2ccc(/C=C/C(=O)OCC(=O)c3ccc(Br)cc3)cc2)c1
> 40 µM (inactive),–,CSCCC(NC(=O)c1ccccc1)c1nc2ccccc2n1CC(=O)Nc1ccccc1 (stereo not given)
–,4.56,Cc1ccc(C)c(NC(=O)Cn2cc(C(=O)C3CC3)c3ccccc32)c1
> 40 µM (inactive),–,CCC(C)N1CNc2c(c(=O)[nH]c(=O)n2Cc2ccco2)C1 (stereo not given)
> 40 µM (inactive),–,COC(=O)c1ccc(Nc2cc(C)nc3cc(C(F)(F)F)ccc23)cc1
> 40 µM (inactive),–,O=C(Cn1cnc(-c2ccccc2)cc1=O)Nc1ccc(Oc2ccccc2)cc1
> 40 µM (inactive),–,COc1ccc(-c2noc([C@@H]3C[C@H](NC(=O)Nc4ccc(C)cc4)CN3C)n2)cc1
> 40 µM (inactive),–,O=C(c1ccc2c(c1)OCO2)[C@@H]1[C@H](C(=O)OC(c2ccccc2)c2ccccc2)N2c3ccccc3C=CC2[C@@]12C(=O)Nc1ccccc12 (stereo not given in full)
